Laboratory results as given in ChEMBL document CHEMBL1152491, “Synthesis and evaluation of antibacterial activities of andrographolide analogues” (2009).
The source made the active and inactive calls. The rule behind the calls is not given here.

Columns and labels:
[1] = test system: Pseudomonas aeruginosa; experiment: Growth inhibition of Pseudomonas aeruginosa PAO1 assessed as survival rate at 0.017 ug/mL after 20 hrs; format: functional; conditions: PAO1, 20 h
[2] = test system: Pseudomonas aeruginosa; experiment: Antibacterial activity against Pseudomonas aeruginosa at 0.05 mg/disk after 25 hrs; format: functional
[3] = test system: Escherichia coli; experiment: Antibacterial activity against Escherichia coli at 0.05 mg/disk after 25 hrs; format: functional
[4] = test system: Bacillus subtilis; experiment: Antibacterial activity against Bacillus subtilis at 0.05 mg/disk after 25 hrs; format: functional
[5] = test system: Candida albicans; experiment: Antifungal activity against Candida albicans at 0.05 mg/disk after 25 hrs; format: functional, organism-based
[6] = test system: Staphylococcus aureus; experiment: Antibacterial activity against Staphylococcus aureus at 0.05 mg/disk after 25 hrs; format: functional
[7] = test system: Staphylococcus aureus; experiment: Antibacterial activity against methicillin-resistant Staphylococcus aureus 5676 at 0.05 mg/disk after 25 hrs; format: functional
[8] = test system: Staphylococcus aureus; experiment: Antibacterial activity against methicillin-resistant Staphylococcus aureus 5677 at 0.05 mg/disk after 25 hrs; format: functional
[9] = test system: Pseudomonas aeruginosa; experiment: Growth inhibition of Pseudomonas aeruginosa PAO1 at 1 mM after 25 hrs; format: functional, organism-based
[10] = test system: Pseudomonas aeruginosa; experiment: Inhibition of Pseudomonas aeruginosa PAO1 quorum sensing assessed as inhibition of pycocyanin production at 0.1 mM after 18 hrs; format: functional, organism-based
[11] = test system: Pseudomonas aeruginosa PAO1; experiment: Inhibition of Pseudomonas aeruginosa PAO1 quorum sensing assessed as inhibition of pycocyanin production at 1 mM after 18 hrs
[12] = test system: Pseudomonas aeruginosa PAO1; experiment: Inhibition of Pseudomonas aeruginosa PAO1 quorum sensing assessed as suppression of protease production at 0.1 mM after 18 hrs by azocasein-based colorimetric method
[13] = test system: Pseudomonas aeruginosa PAO1; experiment: Inhibition of Pseudomonas aeruginosa PAO1 quorum sensing assessed as suppression of protease production at 1 mM after 18 hrs by azocasein-based colorimetric method
[14] = test system: Pseudomonas aeruginosa; experiment: Growth inhibition of Pseudomonas aeruginosa PAO1 assessed as population density at 1 mM after 15 hrs by atomic force microscopy; format: functional, organism-based
[15] = test system: Pseudomonas aeruginosa; experiment: Inhibition of Pseudomonas aeruginosa PAO1 biofilm formation cultivated on respiratory tack suction tube at 1 mM after 3 days by scanning electron microscopy; format: functional, organism-based
[16] = test system: Pseudomonas aeruginosa; experiment: Inhibition of Pseudomonas aeruginosa PAO1 biofilm formation cultivated on respiratory tack suction tube at 1 mM after 7 days by scanning electron microscopy; format: functional, organism-based
[17] = test system: Pseudomonas aeruginosa; experiment: Growth inhibition of Pseudomonas aeruginosa PAO1 assessed as survival rate at 538 ug/mL after 20 hrs; format: functional; conditions: PAO1, 20 h
[18] = test system: Pseudomonas aeruginosa; experiment: Growth inhibition of Pseudomonas aeruginosa PAO1 assessed as survival rate at 3.75 ug/mL after 20 hrs; format: functional; conditions: PAO1, 20 h
[19] = test system: Pseudomonas aeruginosa; experiment: Growth inhibition of Pseudomonas aeruginosa PAO1 at 10 mM after 25 hrs; format: functional, organism-based
[20] = test system: Pseudomonas aeruginosa PAO1; experiment: Inhibition of Pseudomonas aeruginosa PAO1 quorum sensing assessed as inhibition of pycocyanin production at 10 mM after 18 hrs
[21] = test system: Pseudomonas aeruginosa PAO1; experiment: Inhibition of Pseudomonas aeruginosa PAO1 quorum sensing assessed as suppression of protease production at 10 mM after 18 hrs by azocasein-based colorimetric method

Compound | diameter of the inhibition zone (DIZ) [2] [mm] | diameter of the inhibition zone (DIZ) [3] [mm] | diameter of the inhibition zone (DIZ) [4] [mm] | Activity [5] | diameter of the inhibition zone (DIZ) [6] [mm] | diameter of the inhibition zone (DIZ) [7] [mm] | diameter of the inhibition zone (DIZ) [8] [mm] | Activity [9] | Activity [10] | Activity [11] | Activity [12] | Activity [13] | Activity [14] | Activity [15] | Activity [16] | also measured
O=C(O)c1cn(C2CC2)c2cc(N3CCNCC3)c(F)cc2c1=O [CIPROFLOXACIN] |  |  |  |  |  |  |  |  |  |  |  |  |  |  |  | survival at 0.017 µg/mL [1]: 85%
C=C1CC[C@@H]2[C@](C)(CO)[C@H](O)CC[C@@]2(C)[C@@H]1C/C=C1/C(=O)OC[C@H]1OC(=O)CCCCC1CCSS1 (stereo not given in full) | <4 | <4 | <4 | inactive | 4.9 | 6.9 | 4.1 | Active | Active | Active | Active | Active | Active | Active | Active | survival at 538 µg/mL [17]: 84%
CC[C@H]1OC(=O)[C@H](C)[C@@H](O[C@H]2C[C@@](C)(OC)[C@@H](O)[C@H](C)O2)[C@H](C)[C@@H](O[C@@H]2O[C@H](C)C[C@H](N(C)C)[C@H]2O)[C@](C)(O)C[C@@H](C)C(=O)[C@H](C)[C@@H](O)[C@]1(C)O [ERYTHROMYCIN] |  |  |  |  |  |  |  |  |  |  |  |  |  |  |  | survival at 3.75 µg/mL [18]: 93.5%
C=C1CC[C@@H]2[C@](C)(CO)[C@H](O)CC[C@@]2(C)[C@@H]1C/C=C1/C(=O)OC[C@H]1OC(=O)CNC(=O)OC(C)(C)C | <4 | <4 | <4 | inactive | 10.2 | 8.4 | 7.6 |  | Active | Active | Active | Active |  |  |  | 
C=C1CC[C@@H]2[C@](C)(CO)[C@H](O)CC[C@@]2(C)[C@@H]1C/C=C1/C(=O)OC[C@H]1O [ANDROGRAPHOLIDE] | <4 | <4 | <4 |  | <4 |  |  | Active |  |  | Active | Active | inactive | inactive | inactive | 
C=C1CC[C@@H]2[C@](C)(CO)[C@H](O)CC[C@@]2(C)[C@@H]1CC(C1=CCOC1=O)S(=O)(=O)[O-].[Na+] (stereo not given in full) | <4 | <4 | <4 | inactive | <4 |  |  |  | inactive |  | Active |  |  |  |  | Activity [19]: inactive; Activity [20]: Active; Activity [21]: Active
C=C1CC[C@@H]2[C@](C)(CO)[C@H](O)CC[C@@]2(C)[C@@H]1C/C=C1/C(=O)OC[C@H]1OC(=O)/C=C/c1ccc([N+](=O)[O-])cc1 | <4 | <4 | <4 | inactive | 8.3 | 8.1 | 6.4 |  | Active | Active | Active | Active |  |  |  | 
C=C1CC[C@@H]2[C@](C)(CO)[C@H](O)CC[C@@]2(C)[C@@H]1C/C=C1/C(=O)OC[C@H]1OC(=O)CN.Cl | <4 | <4 | <4 | inactive | 9.3 | 8.7 | 5.2 | Active | Active | Active | Active | Active | Active | inactive | inactive | 
